# Read-outs that look alike come from different tables or passages of the source. Marks after values point to notes of the source that are not given here.
# Tests used:
# [1] = tested on: Complete Freund's Adjuvant induced arthritis; assay: Rat adjuvant arthritis inflammation assay; format: in vivo, rats; settings: 10 mg/kg subcutaneous on days 1 and 4
# Method: In the rat adjuvant induced arthritis model, Complete Freund's Adjuvant (CFA) is injected into the right hind paw of rats to induce pathologies similar to rheumatoid arthritis in humans. Compound A was administered orally for 5 consecutive days at 2, 6, and 20 mg/kg. Dexamethasone at 5 m g/kg was also administered orally for 5 days. Enbrel at 10 mg/kg was administered by subcutaneous injection on days 1 and 4. CFA was injected into the right hind paw one hour after the first dose on day 1. […] Polyarthritis was scored as the presence of swelling in front paws, tail, nose or ear.
# [2] = tested on: COLO 205 human colon carcinoma xenografts; assay: Activity against subcutaneous COLO 205 xenografts (Example 118)
# Method: Dosing solutions of Compound A were prepared fresh daily by dissolving the required amount of compound in 100% Cremophor EL, and then diluting ten-fold with normal saline. Final dosing solution concentrations were 2.5, 5, 10, or 20 mg/mL, in order to provide respective doses of 25, 50, 100 or 200 mg/kg in a dosing volume of 10 mL/kg. Paclitaxel (Natural Pharmaceuticals, Inc.) was prepared fresh on each day of dosing in a vehicle consisting of 5% ethanol and 5% Cremophor EL in 90% D5W (5% EC vehicle).
# Group 1 received the formulation vehicle (10% Cremophor EL in saline), and served as the tumor growth control group. Group 2 received the reference drug paclitaxel administered on its optimal schedule in nude mice (30 mg/kg i.v. qod×5). […] All doses were scaled to the weight of the animal (0.2 mL per 20 grams body weight).
# Tumors were measured twice each week using calipers. […] Therefore endpoint tumor size of 800 mm^3 was used for analysis of tumor growth delay (TGD).
# [formula] where b is the intercept and m is the slope of the line obtained by linear regression of a log-transformed tumor growth data set.
# [3] = tested on: human A375 melanoma xenografts
# Colo205 tumor cells = assay: ED50 in Colo205 xenografts (Example 94D); format: in vivo, nu/nu mice; settings: Paclitaxel 30 mg/kg IV QODx5, Colo205 xenografts
# Description: Male nu/nu mice were implanted with Colo205 tumor cells. After 10 days animals were randomized by tumor size (range 126-256 mm^3) and treated with paclitaxel (IV, QODx5), vehicle or Compound A (PO, QDx14).
# A375 cells = assay: Evaluation of cell cycle arrest (propidium iodide, flow cytometry); format: cell-based, human; settings: 24 hr
# Method: A375 cells were plated in 96-well microplates at 10,000 cells/200 μl/well. […] After another 24 hr, cells were trypsinized, fixed in 200 μl Prefer (Anatech, Battle Creek, Mich.), and stored at 4° C. overnight. Cells were then rinsed in PBS, permeabilized and stained in 0.1% Triton X-100, 200 μg/ml DNase-free RNase, and […] propidium iodide (Molecular Probes, Sunnyvale, Calif.), and analyzed on the Guava PCA-96 (Guava Technologies, Foster City, Calif.). Data were analyzed using ModFit LT (version 3.0, Verity, Topsham, Me.).
# MDA pERK = MDA pERK ELISA; format: cell-based
# [4] = Dynamic vapor sorption/desorption (DVS); format: physicochemical; settings: Form A; 5% to 95% relative humidity
# Method: Moisture sorption/desorption data were collected on a VTI SGA-100 Vapor Sorption Analyzer. Sorption and desorption data were collected over a range of 5% to 95% relative humidity (RH) at 10% RH intervals under a nitrogen purge. Samples were not dried prior to analysis. Equilibrium criteria used for analysis were less than 0.0100% weight change in 5 minutes, with a maximum equilibration time of 3 hours if the weight criterion was not met. Data were not corrected for the initial moisture content of the samples. Sodium chloride and polyvinypyrrolidine were used as calibration standards.
# [5] = Group 2, paclitaxel 30 mg/kg iv qod × 14 per the 39th table (qod×5), n=9
# [6] = Group 2: Paclitaxel 30 mg/kg iv qod×5
# [7] = Group 2: Paclitaxel 30 mg/kg iv qod×5, n=9
molecule,measurement,setting,value
enbrel,animals without swelling in the tail (polyarthritis scoring),[1],3 of 6
same,protection from front paw swelling (polyarthritis scoring),[1],no animals were protected
"CC(=O)O[C@H]1C(=O)[C@@]2(C)[C@H]([C@H](OC(=O)c3ccccc3)[C@]3(O)C[C@H](OC(=O)[C@H](O)[C@@H](NC(=O)c4ccccc4)c4ccccc4)C(C)=C1C3(C)C)[C@]1(OC(C)=O)CO[C@@H]1C[C@@H]2O [paclitaxel, reference compound]",PR responses,"[2]; Group 2, 30 mg/kg i.v. qod×5",Five
same,MTV,"[2]; Group 2, 30 mg/kg i.v. qod×5, Day 74",143 mm^3
same,% TGD,[2]; [5],46%
same,MTV (n) Day 74,[2]; [5],0 (3)
same,Median TTE,[2]; [5],60.0 days
same,No of CR,[2]; [5],0
same,No of NTR (non-treatment-related deaths),[2]; [5],2
same,No of PR,[2]; [5],1
same,No of TFS,[2]; [5],0
same,No of TR (treatment-related deaths),[2]; [5],2
same,"SS (statistical significance, logrank vs Group 1)",[2]; [5],ns
same,T − C,[2]; [5],19.0 days
same,Median TTE,"[3]; Group 2, 30 mg/kg iv qod×5",28.8 days
same,TGD,"[3]; Group 2, 30 mg/kg iv qod×5",26%
same,tumor regressions,"[3]; Group 2, 30 mg/kg iv qod×5",No tumor regressions
same,% TGD,[3]; [6],26%
same,Median TTE,[3]; [6],28.8 days
same,T − C,[3]; [6],6.0 days
same,Regressions CR,[3]; [7],0
same,Regressions PR,[3]; [7],0
same,Regressions TFS,[3]; [7],0
same,Day 15 Tumor Volume,Colo205 tumor cells,113 ± 9.6 mm^3
same,% TGI,Colo205 tumor cells; Day 15,104* %
COc1cc(F)c(F)c(Nc2ccc(I)cc2F)c1NS(=O)(=O)C1(C[C@H](O)CO)CC1 [listing 1 of 2 here],Phase % G1,A375 cells; 37 nM,74.3%
same,Phase % G2,A375 cells; 37 nM,7.0%
same,Phase % S,A375 cells; 37 nM,18.7%
same,Phase % G1,A375 cells; 111 nM,84.7%
same,Phase % G2,A375 cells; 111 nM,3.5%
same,Phase % S,A375 cells; 111 nM,11.8%
CN(C)CCNCCS(=O)(=O)Nc1ccc(F)c(F)c1Nc1ccc(I)cc1F [Example 0621016],EC50,MDA pERK,15 to 100 nM
O=S(=O)(Nc1ccc(F)c(F)c1Nc1ccc(-c2cn[nH]c2)cc1F)C1CC1 [Example 0497618],EC50,MDA pERK,> 200 nM
CNCCS(=O)(=O)Nc1ccc(F)c(F)c1Nc1ccc(I)cc1F [Example 0621002],EC50,MDA pERK,15 to 100 nM
COC(=O)c1sccc1S(=O)(=O)Nc1ccc(F)c(F)c1Nc1ccc(I)cc1F [Example 0620926],EC50,MDA pERK,> 200 nM
CS(=O)(=O)Nc1ccc(-c2ccc(Nc3c(NS(=O)(=O)C4CC4)ccc(F)c3F)c(F)c2)cc1 [Example 0499271],EC50,MDA pERK,> 200 nM
O=S(=O)(Nc1ccc(F)c(F)c1Nc1ccc(-c2cc[nH]n2)cc1F)C1CC1 [Example 0497654],EC50,MDA pERK,100 to 200 nM
CCN(C)CCS(=O)(=O)Nc1ccc(F)c(F)c1Nc1ccc(I)cc1F [Example 0621029],EC50,MDA pERK,100 to 200 nM
COc1cc(F)c(F)c(Nc2ccc(I)cc2F)c1NS(=O)(=O)C1(C[C@H](O)CO)CC1 [listing 2 of 2 here],weight change in DVS,[4],negligible weight change
